The source made the active and inactive calls. No cut-off for these calls is given here.
Experiments:
QBC939 [1] = assay: Photodynamic antitumor activity against human QBC939 cells xenografted in BALB/c nude mouse assessed as decrease in tumor weight at 1 mg/kg, iv under dark condition measured after 13 days; format: functional, organism-based; conditions: time 13.0 day
[2] = Emission property of compound in DMF assessed as Q band emission wavelength by […]; format: physicochemical
[3] = Induction of apoptosis in human QBC939 cells assessed as late apoptotic cells at 2 uM in presence of 2J/cm2 light irradiation measured after 2 hrs by annexin V-FITC and propidium iodide staining based flow cytometric analysis (reference value: 0.01 %); format: functional
[4] = Absorption property of the compound in DMF assessed as Q band maximum absorption wavelength by UV-visible spectrophotometric method; format: physicochemical
[5] = Drug uptake in mouse assessed as drug level in plasma at 1 mg/kg, iv measured upto 24 hrs by fluorometric method; format: ADME, organism-based; conditions: in vivo
[6] = Phototoxicity in BALB/c nude mouse xenografted with QBC939 cells assessed as change in kidney at 1 mg/kg, iv followed by laser light irradiation at 120 J/cm2 measured after 1 day of light irradiation by H and E staining based histological analysis; format: organism-based; conditions: in vivo, 24 h
[7] = Induction of apoptosis in human QBC939 cells assessed as late apoptotic cells at 2 uM by annexin V-FITC and propidium iodide staining based flow cytometric analysis; format: functional
[8] = Phototoxicity in ICR mouse assessed as tail weight at 1 mg/kg, iv followed by 10 mW/cm2 light irradiation for 10 mins at 1 day after drug challenge and measured after 1 day of light irradiation by H and E staining based microscopic analysis (reference value: 115.6 +/- 5.6 mg); format: organism-based; conditions: in vivo, 48 h, time 2 day
[9] = Phototoxicity in ICR mouse assessed as pathological changes 1 mg/kg, iv in presence of 10 mW/cm2 light irradiation for 10 mins at 1 day after drug challenge and measured after 1 day of light irradiation by H and E staining based microscopic analysis; format: organism-based; conditions: in vivo, 48 h, time 2 day
[10] = Induction of apoptosis in human QBC939 cells assessed as necrotic cells at 2 uM by annexin V-FITC and propidium iodide staining based flow cytometric analysis; format: functional
[11] = Drug uptake in nude mouse xenografted with QBC939 cells assessed as drug level in tumor tissue at 1 mg/kg, iv measured after 8 hrs by fluorescence imaging assay; format: ADME, organism-based, Neoplasm; conditions: in vivo
[12] = Phototoxicity in BALB/c nude mouse xenografted with QBC939 cells assessed as change in spleen at 1 mg/kg, iv followed by laser light irradiation at 120 J/cm2 measured after 1 day of light irradiation by H and E staining based histological analysis; format: organism-based; conditions: in vivo, 24 h
[13] = Phototoxicity in BALB/c nude mouse xenografted with QBC939 cells assessed as change in liver at 1 mg/kg, iv followed by laser light irradiation at 120 J/cm2 measured after 1 day of light irradiation by H and E staining based histological analysis; format: organism-based; conditions: in vivo, 24 h
[14] = Drug uptake in human QBC939 cells at 4 uM by fluorescence spectrophotometer analysis; format: ADME, cell-based; conditions: qbc939, 4 µM
[15] = Phototoxicity against human QBC939 cells assessed as reduction in cell viability irradiated with 1 J/cm2 of 650 nanometer laser light preincubated for 24 hrs in dark and measured after 24 hrs by MTT assay; format: functional, cell-based; conditions: QBC939, light or radiation study
[16] = Phototoxicity against human QBC939 cells assessed as reduction in cell viability irradiated with 4 J/cm2 of 650 nanometer laser light preincubated for 24 hrs in dark and measured after 24 hrs by MTT assay; format: functional, cell-based; conditions: QBC939, light or radiation study
[17] = Phototoxicity in ICR mouse assessed as neck skin weight at 1 mg/kg, iv followed by 10 mW/cm2 light irradiation for 10 mins at 1 day after drug challenge and measured after 1 day of light irradiation by H and E staining based microscopic analysis (reference value: 36.5 +/- 2.4 mg); format: organism-based; conditions: in vivo, 48 h, time 2 day
[18] = Emission property of compound in poly-oxyethylene castor oil and PBS assessed as Q band emission wavelength by […]; format: physicochemical; conditions: buffer
[19] = Absorption property of compound in poly-oxyethylene castor oil and PBS assessed as Q band log absorption coefficient by UV-visible spectrophotometric method; format: physicochemical; conditions: buffer
[20] = Drug localization in mitochondria of human QBC939 cells at 4 uM incubated for 4 hrs in dark by mito-tracker green based confocal microscopic method; format: ADME; conditions: qbc939, 4 h
[21] = Induction of singlet oxygen generation in DMF solution irradiated with 650 nanometer laser light in every 1 min by ESR assay; format: functional
[22] = Dark toxicity in human QBC939 cells assessed as reduction in cell viability incubated under dark for 24 hrs measured after 24 hrs by MTT assay; format: cell-based; conditions: read-out: TC50
[23] = Drug uptake in nude mouse xenografted with QBC939 cells assessed as drug level in tumor tissue at 1 mg/kg, iv measured after 24 hrs by fluorescence imaging assay; format: ADME, organism-based, Neoplasm; conditions: in vivo
[24] = Induction of apoptosis in human QBC939 cells assessed as early apoptotic cells at 2 uM by annexin V-FITC and propidium iodide staining based flow cytometric analysis (reference value: 0.01 %); format: functional
[25] = Emission property of compound in DMSO assessed as Q band emission wavelength by […]; format: physicochemical
[26] = Induction of apoptosis in human QBC939 cells assessed as necrotic cells at 2 uM in presence of 2J/cm2 light irradiation measured after 24 hrs by annexin V-FITC and propidium iodide staining based flow cytometric analysis (reference value: 0.02 %); format: functional
[27] = Phototoxicity in BALB/c nude mouse xenografted with QBC939 cells assessed as change in heart at 1 mg/kg, iv followed by laser light irradiation at 120 J/cm2 measured after 1 day of light irradiation by H and E staining based histological analysis; format: organism-based; conditions: in vivo, 24 h
[28] = Induction of apoptosis in human QBC939 cells assessed as early apoptotic cells at 2 uM in presence of 2J/cm2 light irradiation measured after 2 hrs by annexin V-FITC and propidium iodide staining based flow cytometric analysis (reference value: 0.01 %); format: functional
[29] = Absorption property of the compound in DMSO assessed as Q band maximum absorption wavelength by UV-visible spectrophotometric method; format: physicochemical
[30] = Absorption property of the compound in DMSO assessed as Q band log absorption coefficient by UV-visible spectrophotometric method; format: physicochemical
[31] = Drug localization in lysosome of human QBC939 cells at 4 uM incubated for 4 hrs in dark by lyso-tracker blue based confocal microscopic method; format: ADME, subcellular; conditions: qbc939, 4 h
[32] = Phototoxicity in ICR mouse assessed as ear weight at 1 mg/kg, iv followed by 10 mW/cm2 light irradiation for 10 mins at 1 day after drug challenge and measured after 1 day of light irradiation by H and E staining based microscopic analysis (reference value: 12.4 +/- 1.5 mg); format: organism-based; conditions: in vivo, 48 h, time 2 day
QBC939 [33] = assay: Photodynamic antitumor activity against human QBC939 cells xenografted in BALB/c nude mouse assessed as morphological change in tumor tissue at 1 mg/kg, iv followed by laser light irradiation at 120 J/cm2 measured after 1 day of light irradiation by H and E staining based histological analysis; format: functional, organism-based
[34] = Phototoxicity against human QBC939 cells assessed as reduction in cell viability irradiated with 2 J/cm2 of 650 nanometer laser light preincubated for 24 hrs in dark and measured after 24 hrs by MTT assay; format: functional, cell-based; conditions: QBC939, light or radiation study

COC(=O)C1(C(=O)O)C2c3nc(c(-c4ccccc4)c4ccc([nH]4)c(-c4ccccc4)c4nc(c(-c5ccccc5)c5ccc([nH]5)c3-c3ccccc3)C=C4)C21 (centres undefined)
Activity (QBC939 [1]): inactive | Activity [2]: 656 nm | Activity [3]: 14.73% | Activity [4]: 656 nm | Drug uptake [5]: Active | Activity [6]: Non-Toxic | Activity [7]: 2.06% | Activity [8]: 116.5 mg | Activity [9]: Non-Toxic | Activity [10]: 3.6% | Drug uptake [11]: Active | Activity [12]: Non-Toxic | Activity [13]: Non-Toxic | Drug uptake [14]: Active | IC50 [15]: 1.91 µM | IC50 [16]: 0.78 µM | Activity [17]: 37.9 mg | Activity [18]: 654 nm | Activity [19]: 4.2 | Drug uptake [20]: Active | Activity [21]: Active | CC50 at 48 h [22]: > 8 µM | Drug uptake [23]: Active | Activity [24]: 0.04% | Activity [25]: 652 nm | Activity [26]: 7.79% | Activity [27]: Non-Toxic | Activity [28]: 23.2% | Activity [29]: 650 nm | Activity [30]: 4.02 | Drug uptake [31]: Active | Activity [32]: 12.8 mg | Activity (QBC939 [33]): Active | IC50 [34]: 1.36 µM
